In patent US11492341B2, “ACLY inhibitors and uses thereof” (Nimbus Artemis, Inc., priority 2018, dated 2022):

target: ACL (Homo sapiens (Human), UniProt P53396); test: ADP-Glo Assay; format: biochemical; settings: 3 nM ACL, 15 μM ATP, 3 μM CoA, 300 μM Citrate
Description: Example 28. ADP-Glo Assay
Compounds of the present invention were evaluated in an ADP-GLO assay as follows: a) Dilute cpd 1:3 in succession in DMSO by hand for each cpds for 12 pts b) Add 0.1 μL diluted cpd solution to assay plate, each dose with 2 replicates c) Centrifuge 1000 RPM for 1 min d) Add 5 μL ACL working solution to 384-well assay plate, centrifuge 1000 RPM for 1 min e) Incubate at 25° C. for 15 min f) Add 5 μL substrate working solution to initiate reaction g) Final ACL reaction concentrations: 3 nM ACL, 15 μM ATP, 3 μM CoA, 300 μM Citrate, 0.01% Brij35, 4 mM DTT, 1% DMSO; h) Reference final conc: 30 uM starting Conc, 3× dilution, 11+0 points. Test cpd conc: 30/100 uM starting Conc, 3× dilution, 11+0 points. i) Incubate at 25° C. for 60 min j) Add 10 μL ADP Glo reagent, centrifuge 1000 RPM for 1 min k) Incubate at 25° C. for 40 min l) Add 20 μL kinase detection reagent, centrifuge 1000 RPM for 1 min m) Incubate at 25° C. for 40 min n) Read on Envision for US LUM as RLU

Chain of ACL (P53396 whole entry, species assumed): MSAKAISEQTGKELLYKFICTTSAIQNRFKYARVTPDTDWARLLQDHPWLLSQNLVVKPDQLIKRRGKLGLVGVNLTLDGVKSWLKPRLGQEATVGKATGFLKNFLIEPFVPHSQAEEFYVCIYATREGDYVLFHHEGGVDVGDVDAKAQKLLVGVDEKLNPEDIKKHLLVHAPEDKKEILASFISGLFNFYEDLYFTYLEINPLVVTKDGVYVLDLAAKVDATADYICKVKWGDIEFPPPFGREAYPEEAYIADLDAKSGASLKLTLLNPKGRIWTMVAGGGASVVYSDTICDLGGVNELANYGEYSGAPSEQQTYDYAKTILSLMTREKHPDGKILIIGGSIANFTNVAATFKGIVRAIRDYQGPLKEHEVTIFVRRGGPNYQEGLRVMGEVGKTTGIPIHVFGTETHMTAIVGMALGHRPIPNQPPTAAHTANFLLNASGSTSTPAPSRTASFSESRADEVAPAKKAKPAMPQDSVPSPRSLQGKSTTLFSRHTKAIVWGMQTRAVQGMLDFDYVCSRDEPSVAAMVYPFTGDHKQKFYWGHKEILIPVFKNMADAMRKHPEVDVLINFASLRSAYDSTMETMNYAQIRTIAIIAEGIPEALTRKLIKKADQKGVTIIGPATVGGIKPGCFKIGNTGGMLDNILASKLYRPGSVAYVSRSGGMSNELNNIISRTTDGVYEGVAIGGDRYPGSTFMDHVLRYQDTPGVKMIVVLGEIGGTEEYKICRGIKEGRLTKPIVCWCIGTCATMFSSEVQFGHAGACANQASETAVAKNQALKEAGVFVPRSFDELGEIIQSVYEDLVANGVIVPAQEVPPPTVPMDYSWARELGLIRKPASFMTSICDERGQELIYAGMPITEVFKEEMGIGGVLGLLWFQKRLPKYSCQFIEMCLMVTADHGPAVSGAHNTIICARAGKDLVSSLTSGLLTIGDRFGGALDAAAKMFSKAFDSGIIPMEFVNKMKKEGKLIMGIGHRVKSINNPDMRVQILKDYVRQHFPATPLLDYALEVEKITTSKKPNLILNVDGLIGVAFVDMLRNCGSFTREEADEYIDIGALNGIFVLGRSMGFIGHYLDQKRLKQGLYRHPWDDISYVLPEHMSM

SMILES	IC50 [µM]
O=C(O)c1cc2c(cc1Cl)cc(-c1cncnc1)n2S(=O)(=O)c1cc(Br)cc(Cl)c1O [I-157]	0.5 to 20
O=S(=O)(c1cc(F)cc(F)c1O)n1c(-c2cnccn2)cc2cc(Cl)ccc21 [I-105]	0.5 to 20
O=S(=O)(c1cccc(Cl)c1O)n1c(-c2ccccc2)cc2cc(Cl)ccc21 [I-63]	0.5 to 20
COC(=O)c1c(-c2ccccc2)c2cc(Cl)ccc2n1S(=O)(=O)c1cc(Cl)cc(Cl)c1 [I-120]	≥ 20
O=S(=O)(c1cc(Br)cc(Cl)c1O)n1c(Cc2ccccc2OC(F)(F)F)cc2cc(Cl)ccc21 [I-151]	0.5 to 20
COc1ccc(C2CCN(S(=O)(=O)c3cc(Cl)cc(Cl)c3O)C2)cc1 (stereo not drawn) [I-11]	0.5 to 20
COc1ccc(N2CCN(S(=O)(=O)c3cc(Cl)cc(Cl)c3O)CC2)cc1 [I-16]	0.5 to 20
O=C(O)c1sccc1S(=O)(=O)n1c(-c2ccccc2)cc2cc(Cl)ccc21 [I-71]	0.5 to 20
CN(C)C(=O)c1ccc2c(c1)cc(-c1ccccc1)n2S(=O)(=O)c1cc(Br)cc(Cl)c1O [I-56]	0.5 to 20
COC(=O)c1cc2c(cc1Cl)cc(C)n2S(=O)(=O)c1cc(Br)cc(Cl)c1O [I-148]	0.5 to 20
N#Cc1ccc2c(c1)cc(-c1cncnc1)n2S(=O)(=O)c1cc(F)cc(F)c1O [I-97]	0.5 to 20
O=S(=O)(c1cc(F)cc(F)c1O)n1c(-c2ccc(OC(F)(F)F)cc2)cc2cc(Cl)ccc21 [I-51]	0.5 to 20
O=S(=O)(c1cc(Br)cc(Cl)c1O)N1CCc2ccc(-c3ccccc3)cc21 [I-3, 4-bromo-2-chloro-6-((6-phenylindolin-1-yl)sulfonyl)phenol]	0.5 to 20
Cc1ccc2c(c1)cc(-c1cncnc1)n2S(=O)(=O)c1cc(F)cc(F)c1O [I-92]	0.5 to 20
O=C(O)c1ccc2cc(-c3ccccc3)n(S(=O)(=O)c3cc(Br)cc(Cl)c3O)c2c1 [I-67]	0.5 to 20
N#Cc1ccc2c(c1)cc(-c1cncs1)n2S(=O)(=O)c1cc(F)cc(F)c1O [I-85]	0.5 to 20
O=S(=O)(c1cc(F)cc(F)c1O)n1c(-c2ccccn2)cc2cc(Cl)ccc21 [I-95]	0.5 to 20
O=S(=O)(c1cc(Cl)cc(Cl)c1O)N1CCOC(COc2ccccc2)C1 (stereo not drawn) [I-8]	0.5 to 20
O=S(=O)(c1cncc(O)c1)n1c(-c2ccccc2)cc2cc(Cl)ccc21 [I-119]	≥ 20
N#Cc1ccc2c(c1)cc(-c1cn[nH]c1)n2S(=O)(=O)c1cc(F)cc(F)c1O [I-74]	0.5 to 20
O=S(=O)(c1cc(Cl)cc(Cl)c1O)N1Cc2cnn(-c3ccccc3)c2C1 [I-7]	0.5 to 20
O=S(=O)(c1cc(Br)cc(Cl)c1O)n1c(-c2cnc(C(F)(F)F)nc2)cc2cc(Cl)ccc21 [I-152]	0.5 to 20
Cc1cncc(-c2cc3cc(Cl)ccc3n2S(=O)(=O)c2cc(F)cc(F)c2O)n1 [I-101]	0.5 to 20

SMILES	IC50 [µM]
O=c1[nH]cncc1-c1cc2cc(Cl)ccc2n1S(=O)(=O)c1cc(F)cc(F)c1O [I-141, 5-(5-chloro-1-((3,5-difluoro-2-hydroxyphenyl)sulfonyl)-1H-indol-2-yl)pyrimidin-4(3H)-one]	0.5 to 20
O=S(=O)(c1cc(F)cc(F)c1O)n1c(-c2cnc(C(F)(F)F)nc2)cc2cc(Cl)ccc21 [I-137]	0.5 to 20
O=S(=O)(c1cc(Br)cc(Cl)c1O)n1ccc2ccc(-c3ccccc3)cc21 [I-4, 4-bromo-2-chloro-6-((6-phenyl-1H-indol-1-yl)sulfonyl)phenol]	0.5 to 20
N#Cc1ccc2c(c1)cc(-c1ccccc1)n2S(=O)(=O)c1cc(F)cc(F)c1O [I-77]	0.5 to 20
O=C(O)c1c(-c2ccccc2)c2cc(Cl)ccc2n1S(=O)(=O)c1cc(Cl)cc(Cl)c1 [I-104]	0.5 to 20
O=S(=O)(c1cccc(Cl)c1O)n1c(-c2cncnc2)cc2cc(Cl)ccc21 [I-94]	0.5 to 20
O=C(O)c1cc(Cl)c(O)c(S(=O)(=O)N2CCc3ccc(-c4ccccc4)cc32)c1 [I-5]	0.5 to 20
COC(=O)c1ccc2c(c1)cc(-c1ccccc1)n2S(=O)(=O)c1cc(F)cc(F)c1 [I-114]	≥ 20
CCOC(=O)c1cc2cc(Cl)ccc2n1S(=O)(=O)c1ccc(-c2ccccc2)cc1F [I-164]	≥ 20
COc1c(F)cc2cc(C)n(S(=O)(=O)c3cc(Br)cc(Cl)c3O)c2c1F [I-165]	0.5 to 20
CN(C)C(=O)c1ccc2cc(-c3ccccc3)n(S(=O)(=O)c3cc(Br)cc(Cl)c3O)c2c1 [I-80]	0.5 to 20
COC(=O)c1ccc2c(c1)cc(-c1ccccc1)n2S(=O)(=O)c1cc(Br)cc(Cl)c1O [I-53]	0.5 to 20
O=S(=O)(c1cc(Cl)cc(Cl)c1O)N1CC2(CCOCC2)C1c1ccccc1 (stereo not drawn) [I-19]	0.5 to 20
CC(=O)Nc1ccc2c(c1)CN(S(=O)(=O)c1cc(Cl)cc(Cl)c1O)CC2 [I-13]	0.5 to 20
O=S(=O)(c1cc(Br)cc(Cl)c1O)n1c(-c2cncnc2)cc2ccccc21 [I-29, 4-bromo-2-chloro-6-((2-(pyrimidin-5-yl)-1H-indol-1-yl)sulfonyl)phenol]	0.5 to 20
Cc1ccc(-c2cc3cc(Cl)ccc3n2S(=O)(=O)c2cc(F)cc(F)c2O)nn1 [I-96]	0.5 to 20
Cc1ncc(-c2cc3cc(Cl)ccc3n2S(=O)(=O)c2cc(F)cc(F)c2O)cn1 [I-100]	0.5 to 20
COc1ccc(Cn2cncc(-c3cc4cc(Cl)ccc4n3S(=O)(=O)c3cc(F)cc(F)c3O)c2=O)cc1 [I-136, 5-(5-chloro-1-((3,5-difluoro-2-hydroxyphenyl)sulfonyl)-1H-indol-2-yl)-3-(4-methoxybenzyl)pyrimidin-4(3H)-one]	0.5 to 20
O=S(=O)(c1cc(Cl)cc(Cl)c1O)N1CCC1c1ccccc1F (stereo not drawn) [I-12]	0.5 to 20
Cc1ncncc1-c1cc2cc(Cl)ccc2n1S(=O)(=O)c1cc(F)cc(F)c1O [I-102]	0.5 to 20
O=C(O)c1ccc2cc(-c3ccccc3)n(S(=O)(=O)c3cc(Cl)cc(Br)c3)c2c1 [I-69]	0.5 to 20
O=S(=O)(c1cc(Br)cc(Cl)c1O)n1c(-c2ccccc2)cc2ccccc21 [I-23, 4-bromo-2-chloro-6-((2-phenyl-1H-indol-1-yl)sulfonyl)phenol]	0.5 to 20
O=S(=O)(c1cc(F)cc(F)c1O)n1c(-c2cncnc2)cc2cc(Cl)ccc21 [I-90]	0.5 to 20

Second part, the compound after the results:

IC50 [µM]	SMILES
0.5 to 20	O=C(O)Cc1cc2cc(Cl)ccc2n1S(=O)(=O)c1cc(Cl)cc(Cl)c1O [I-88]
0.5 to 20	O=C(O)c1cc(Br)cc(S(=O)(=O)n2c(-c3ccccc3)cc3cc(Cl)ccc32)c1O [I-89]
0.5 to 20	O=C(O)c1ccccc1-c1cc2cc(Cl)ccc2n1S(=O)(=O)c1cc(Br)cc(Cl)c1O [I-27, 2-(1-((5-bromo-3-chloro-2-hydroxyphenyl)sulfonyl)-5-chloro-1H-indol-2-yl)benzoic acid]
0.5 to 20	CC(C)(O)c1cc2cc(Cl)ccc2n1S(=O)(=O)c1cc(Br)cc(Cl)c1O [I-39]
≥ 20	CCOC(=O)c1cc2cc(Cl)ccc2n1S(=O)(=O)c1cc(Cl)cc(Cl)c1 [I-108]
0.5 to 20	O=S(=O)(c1cc(Cl)cc(Cl)c1O)N1CC(O)(c2ccc(Cl)cc2)C1 [I-9]
< 0.5	O=C(O)c1cccc(-c2cc3cc(Cl)ccc3n2S(=O)(=O)c2cc(Br)cc(Cl)c2O)c1 [I-44]
0.5 to 20	CN(C)C(=O)c1ccc(-c2cc3cc(Cl)ccc3n2S(=O)(=O)c2cc(Br)cc(Cl)c2O)cc1 [I-50, 4-(1-((5-bromo-3-chloro-2-hydroxyphenyl)sulfonyl)-5-chloro-1H-indol-2-yl)-N,N-dimethylbenzamide]
0.5 to 20	CN(C)C(=O)c1cccc(-c2cc3cc(Cl)ccc3n2S(=O)(=O)c2cc(Br)cc(Cl)c2O)c1 [I-37]
0.5 to 20	O=C(O)c1ccc(-c2cc3cc(Cl)ccc3n2S(=O)(=O)c2cc(Cl)cc(Cl)c2)cc1 [I-58]
0.5 to 20	NC(=O)c1cc(Cl)c(O)c(S(=O)(=O)n2c(-c3ccccc3)cc3cc(Cl)ccc32)c1 [I-79]
0.5 to 20	N#Cc1cc(Cl)c(O)c(S(=O)(=O)n2c(-c3ccccc3)cc3cc(Cl)ccc32)c1 [I-78]
0.5 to 20	O=C(O)c1cc(Cl)c(O)c(S(=O)(=O)n2c(-c3ccccc3)cc3cc(Cl)ccc32)c1 [I-73]
0.5 to 20	O=C(O)c1cc2cc(Cl)ccc2n1S(=O)(=O)c1cc(Cl)cc(Cl)c1O [I-66]
0.5 to 20	O=C(c1cc(Cl)c(O)c(S(=O)(=O)n2c(-c3ccccc3)cc3cc(Cl)ccc32)c1)N1CCC1 [I-52, azetidin-1-yl(3-chloro-5-((5-chloro-2-phenyl-1H-indol-1-yl)sulfonyl)-4-hydroxyphenyl)methanone]
0.5 to 20	Cc1c(C)n(S(=O)(=O)c2cc(Br)cc(Cl)c2O)c2ccc(Cl)cc12 [I-36]
0.5 to 20	Cc1cc2cc(Cl)ccc2n1S(=O)(=O)c1cc(Cl)c(O)cc1Br [I-149]
< 0.5	O=S(=O)(c1cc(Br)cc(Cl)c1O)n1c(-c2cncnc2)cc2cc(Cl)ccc21 [I-24, 4-bromo-2-chloro-6-((5-chloro-2-(pyrimidin-5-yl)-1H-indol-1-yl)sulfonyl)phenol]
≥ 20	Cc1nc(=O)c2cc(Cl)ccc2n1S(=O)(=O)c1cc(Br)cc(Cl)c1O [I-155]
0.5 to 20	Cc1cc2cc(Cl)c(C(=O)O)cc2n1S(=O)(=O)c1cc(Br)cc(Cl)c1O [I-160]
0.5 to 20	Cc1ccccc1-c1cc2cc(Cl)ccc2n1S(=O)(=O)c1cc(Br)cc(Cl)c1O [I-35]
0.5 to 20	Cc1cc2cc(Cl)ccc2n1S(=O)(=O)c1cc(-c2ccccc2)cc(Cl)c1O [I-142]
0.5 to 20	O=S(=O)(c1cc(Cl)cc(Cl)c1O)n1c(-c2cccc(OC(F)(F)F)c2)cc2cc(Cl)ccc21 [I-54]
